Data set [1] deals with HUVEC. Description: Cytotoxicity against HUVEC. Format: cell-based. The conditions noted are these: Homo sapiens.
Another data set relates to HeLa. Put plainly: Antineoplastic activity against human HeLa cells measured after 36 hrs by MTT assay. Format: functional, cell-based.
A further data set deals with HepG2. Put plainly: Antineoplastic activity against human HepG2 cells measured after 36 hrs by MTT assay. The data set is classed as functional, cell-based. The settings on record: HepG2, 36 h. A general note: Formazan colour is commonly taken as a measure of viable cells.
Data set [2] relates to MCF7. Description: Antineoplastic activity against human MCF7 cells measured after 36 hrs by MTT assay. The data set is classed as functional, cell-based. The conditions noted are these: MCF7, 36 h.
Data set [3] has as its system A549. Put plainly: Antineoplastic activity against human A549 cells measured after 36 hrs by MTT assay. The data set is classed as functional, cell-based. The settings on record: A549, 36 h.
Data set [4] relates to HUVEC. Description: Cytotoxicity against HUVEC measured after 36 hrs by MTT assay. The data set is classed as cell-based. The conditions noted are these: Homo sapiens.
For data set [5], the system named is MCF7. Put plainly: Induction of apoptosis in human MCF7 cells assessed as early apoptotic cells at 1 ug/ml after 24 hrs by Annexin V-FITC/propidium iodide staining based flow cytometry (reference value: 2.83%). Format: functional. On the technique in general: Flow cytometry measures light scatter and fluorescence of single cells or particles in a stream.
For data set [6], the system named is MCF7. Description: Induction of apoptosis in human MCF7 cells assessed as early apoptotic cells at 5 ug/ml after 24 hrs by Annexin V-FITC/propidium iodide staining based flow cytometry (reference value: 2.83%). The data set is classed as functional.
Data set [7] concerns MCF7. Put plainly: Induction of apoptosis in human MCF7 cells assessed as early apoptotic cells at 0.1 ug/ml after 24 hrs by Annexin V-FITC/propidium iodide staining based flow cytometry (reference value: 2.83%). The data set is classed as functional.
For data set [8], the system named is Salmon testes DNA. Description: Binding affinity to Salmon sperm DNA assessed as hypochromic shift at 5 x 10^-5M by absorption spectra analysis. Format: nucleic-acid assay. The settings on record: Salmonidae.
Data set [9] concerns MCF7. Description: Induction of apoptosis in human MCF7 cells assessed as decrease in viable cells after 24 hrs by Annexin V-FITC/propidium iodide staining based flow cytometry. Format: functional, cell-based.
Data set [10] concerns MCF7. Description: Induction of apoptosis in human MCF7 cells assessed as increase in apoptotic cells after 24 hrs by Annexin V-FITC/propidium iodide staining based flow cytometry. Format: functional, cell-based.
Data set [11] has as its system Salmon testes DNA. Description: Binding affinity to Salmon sperm DNA assessed as DNA intercalation at 1.5 x 10^-5M by ethidium bromide staining based fluorescence assay. The data set is classed as nucleic-acid assay. The settings on record: Salmonidae.
Data set [12] relates to A549. Put plainly: Induction of apoptosis in human A549 cells assessed as early apoptotic cells at 1 ug/ml after 24 hrs by Annexin V-FITC/propidium iodide staining based flow cytometry (reference value: 6.09%). Format: functional.
Data set [13] has as its system A549. Put plainly: Induction of apoptosis in human A549 cells assessed as early apoptotic cells at 2 ug/ml after 24 hrs by Annexin V-FITC/propidium iodide staining based flow cytometry (reference value: 6.09%). The data set is classed as functional.
In data set [14] the test system is A549. Description: Induction of apoptosis in human A549 cells assessed as early apoptotic cells at 5 ug/ml after 24 hrs by Annexin V-FITC/propidium iodide staining based flow cytometry (reference value: 6.09%). The data set is classed as functional.
In data set [15] the test system is A549. Put plainly: Induction of apoptosis in human A549 cells assessed as decrease in viable cells after 24 hrs by Annexin V-FITC/propidium iodide staining based flow cytometry. The data set is classed as functional, cell-based.
The test system of data set [16] is A549. Description: Induction of apoptosis in human A549 cells assessed as increase in apoptotic cells after 24 hrs by Annexin V-FITC/propidium iodide staining based flow cytometry. The data set is classed as functional, cell-based.
Data set [17] can be described thus: Drug internalization in human HeLa cells at 100 nM incubated for 2 hrs at 4 degC by confocal fluorescence imaging analysis. The data set is classed as ADME, cell-based. The conditions noted are these: 0.1 µM.

Broadly, the IC50 is the point on the concentration scale where inhibition reaches its midpoint. A higher IC50 goes with weaker potency in that assay.

Calls of active or inactive are those of the source. No cut-off for these calls is given here.

For the molecule `O=c1[nH]cc(F)c(=O)[nH]1` [FLUOROURACIL], the IC50 with HUVEC [1] is 11.7 µM.

On to `CC(C)c1ccc2c(c1)CC[C@H]1[C@](C)(CN)CCC[C@]21C.CC(C)c1ccc2c(c1)CC[C@H]1[C@](C)(CN)CCC[C@]21C.O=C(O)c1nc[nH]c1C(=O)O` [listing 1 of 2 here], for which the half-inhibitory concentration (IC50) with HeLa turned out to be 2.88 µM; in the data set on HepG2, 2.91 µM; in the data set on MCF7 [2], 0.75 µM; with A549 [3], 4.37 µM; with HUVEC [4], 3.98 µM. The Activity was found to be 39.49% with MCF7 [5], 54.21% in the data set with MCF7 [6] and 25.4% in the data set with MCF7 [7].

Consider `CC(C)c1ccc2c(c1)CC[C@H]1[C@](C)(CNC(=O)c3ncn(C)c3C(=O)NC[C@]3(C)CCC[C@]4(C)c5ccc(C(C)C)cc5CC[C@@H]34)CCC[C@]21C`, for which the concentration for half-maximal inhibition (IC50) with HeLa is 48.5 µM; with HepG2 it was 50.5 µM; with MCF7 [2], 9.85 µM; with A549 [3] it was 17 µM; in the data set with HUVEC [4], 44.9 µM. Besides, the result with Salmon testes DNA [8] was Active.

`CC(C)c1ccc2c(c1)CC[C@H]1[C@](C)(CN)CCC[C@]21C.CC(C)c1ccc2c(c1)CC[C@H]1[C@](C)(CN)CCC[C@]21C.O=C(O)c1nc[nH]c1C(=O)O` [listing 2 of 2 here]: the Activity result with MCF7 [9] and in the data set with MCF7 [10] was “Dose-dependent effect” throughout. For the same molecule, the result with Salmon testes DNA [11] and in the data set with Salmon testes DNA [8] was Active.

As for `COc1cccc2c1C(=O)c1c(O)c3c(c(O)c1C2=O)C[C@@](O)(C(=O)CO)C[C@@H]3O[C@H]1C[C@H](N)[C@H](O)[C@H](C)O1` [DOXORUBICIN], the IC50 with HeLa was 3.55 µM; with MCF7 [2] it was 14 µM; in the data set with A549 [3], 3.35 µM; in the data set on HUVEC [4], 4.4 µM.

On to `CC(C)c1ccc2c(c1)CC[C@H]1[C@](C)(CN)CCC[C@]21C.O=C(O)c1nc[nH]c1C(=O)O` [listing 1 of 2 here], for which the IC50 in the data set on HeLa worked out at 18.7 µM; in the data set with HepG2, 4.62 µM; with MCF7 [2], 6.47 µM; in the data set on A549 [3] it was 1.85 µM; in the data set on HUVEC [4] it was 1.21 µM. Further, the Activity in the data set with A549 [12] worked out at 12.47%; in the data set with A549 [13], 30.64%; with A549 [14], 76.86%.

On to `CC(C)c1ccc2c(c1)CC[C@H]1[C@](C)(CN)CCC[C@]21C.O=C(O)c1nc[nH]c1C(=O)O` [listing 2 of 2 here], for which the Activity result in the data set on A549 [15] and with A549 [16] was “Dose-dependent effect” throughout.

On to `CC(C)c1ccc2c(c1)CC[C@H]1[C@](C)(CNC(=O)c3ncn(C)c3C(=O)O)CCC[C@]21C`, for which the IC50 with HeLa was 16.8 µM; with HepG2, 6.52 µM; in the data set with MCF7 [2] it was 12.1 µM; with A549 [3] it was 12.3 µM; in the data set with HUVEC [4] it was 33 µM. Further, in the data set with Salmon testes DNA [8], the outcome was Active.

As for `CC(C)c1ccc2c(c1)CC[C@H]1[C@](C)(CNC(=O)c3cncn3C)CCC[C@]21C`, the IC50 with HeLa was 20.9 µM; with HepG2 it was 12 µM; with MCF7 [2], 2.17 µM; in the data set with A549 [3], 53.2 µM; with HUVEC [4] it was 57.8 µM. For the same molecule, the outcome in the data set with Salmon testes DNA [8] was Active.

On to `CC(C)c1ccc2c(c1)CC[C@H]1[C@](C)(CN)CCC[C@]21C`, for which the Drug uptake result in data set [17] is reported as “Not Active”.
